The text below walks through data of US8030446B2, “Mutant proline-and-arginine rich peptides and methods for using the same” (Trustees of Dartmouth College, priority 2006, dated 2011).

Where “and” joins values, the source holds several entries; their conditions need not be identical. Identical values can stand only once. Like-named read-outs stand apart in the source and are kept apart here. Marks after values point to notes of the source that are not given here. Ends that are not written are not given here. Bounds are passed on as bounds.

Assay [1] has as its target T1, Mammalian (Human) 20s Proteasome (Homo sapiens, UniProt P25788).
T1 construct: purchased Boston Biochem (Cambridge, Mass.)
Nature of the assay: Chymotrypsin-like (ChT-L) peptidase activity of 20S proteasome, N-succinyl-LLVY-AMC substrate. The conditions noted are these: for IC50: 15-minute pre-incubation, 1 hour at 37° C., pH 7.5, 0.03% SDS. It counts as biochemical. Here is the method: Determination of Enzymatic Activity. Mammalian (Human) 20s Proteasome was purchased from Boston Biochem (Cambridge, Mass.); substrate, N-succinyl-LLVY-AMC was purchased from SIGMA (St. Louis, Mo.); and negative control, Lactacystin, was purchased from SIGMA. […] Activity was determined by measuring the amount of a fluorescence observed upon release of the MCA group after a 1 hour incubation at 37° C. in 50 mM sodium phosphate buffer at pH 7.5 containing 0.03% SDS. Inhibition by PR-peptide was measured after a 15-minute pre-incubation at 37° C. of each peptide with 20S proteasome, followed by the addition of the substrate and the one hour incubation.

For assay [2], the system named is genes regulating the NF-κB pathway in human umbilical vein endothelial cells (HUVEC). In words: NF-κB pathway-specific gene expression microarray in HUVEC treated with PR peptides. In kind it is cell-based. As to conditions: for overall inhibitory effect on NF-κB pathway-related gene expression (in words): FIG. 1, averaged % inhibition over 13 down-regulated genes, relative to PR11; for AKT1 gene expression / ATF2 gene expression / CREB1 gene expression / ELK3 gene expression / JNK1 gene expression / MEK4 gene expression / MEKK1 gene expression / MEKK2 gene expression / NF-κB1 gene expression / NF-κB2 gene expression / P38 MAPK gene expression / RANK gene expression / RIP gene expression / TAK1 gene expression / TBK1 gene expression / TRAF6 gene expression: PR peptides 1 μM, 8 hours, relative to untreated controls. Here is the method: Cell Culture. Human umbilical vein endothelial cells (HUVEC, Cambrex Bio Science Walkersville, Inc., East Rutherford, N.J.) were cultured in endothelial cell basal medium-2 supplemented with EGM-2 SINGLEQUOTS (Cambrex Bio Science Walkersville, Inc.) and FBS. Confluent HUVEC, passage 3-5, were starved overnight in medium supplemented with 0.5% FBS, 0.25% BSA and incubated with PR peptides (1 μM) for 8 hours in starvation medium.
Total RNA Extraction and Gene Profiling by Microarray. Total RNA extraction was performed using the RNEASY mini kit protocol (QIAGEN, Valencia, Calif.). The quality and quantity of total RNA was determined using RNA 6000 Nano chips (Agilent Technology, Santa Clara, Calif.).
Gene profiling was performed using pathway-specific gene expression array for NF-κB signaling transduction (HS-016.2, SuperArray Bioscience Corp.). A total of 96 cDNA fragments from genes related to NF-κB mediated signal transduction, including: NF-κB/IκB family, NF-κB responsive genes (adhesion molecules, cytokines), extracellular ligands, transmembrane receptors, adaptor proteins, signal transduction kinases, and transcription factors were printed in tetraspot format on 3.8×4.8 cm nylon array membrane. Total RNA (0.5 μg) was reverse-transcribed into cDNA labeled with biotin-dUTP according to the manufacture's protocol. After overnight hybridization at 60° C., array membranes were treated with alkaline phosphate-conjugated streptavidin followed by chemiluminescent alkaline phosphate substrate CDP-star (Applied Biosystems, Foster City, Calif.) and exposed to X-ray film. The data were extracted from raw images using […] software (SuperArray, Bioscience Corp.). After background subtraction, the level of gene expression was determined as signal intensity units relative to total array intensity signal. Statistical significant altered genes (PR peptides vs. control) at P values <0.05 were analyzed by Student's t-test, 2-tailed distribution. The data were expressed as fold change PR peptides relative to controls (untreated cells kept in similar conditions).

Setting [3] is: chymotrypsin-like activity, read-out: I50.

The substance AAAPRPPYLPR [AAA, reference compound] returned an IC50 in assay [1] (I50, chymotrypsin-like activity) of over 100000 nM.
Take AARPRPPYLPR [AAR]: the IC50 in assay [1] (setting [3]) was determined as 14500 nM.
The same measure, in the same setting: with ARAPRPPYLPR [ARA] the figure was 11300 nM.
Regarding ARRPRPPELPR [Peptide A1E8], the IC50 in assay [1] (setting [3]) stood at 49400 nM. The “overall inhibitory effect on NF-κB pathway-related gene expression (in words)” value (shortened to “overall inhibitory effect”) in assay [2] was “reduced activity compared with PR11 or Trp12”. Moreover, in assay [2] (HUVEC), the AKT1 gene expression was 0.8 fold change, the ATF2 gene expression is on record as −1.5* fold change, the CREB1 gene expression was −2.2* fold change and the ELK3 gene expression entry is recorded as “^−1.9^# fold change”. Moreover, in assay [2] (HUVEC), the JNK1 gene expression is on record as −1.5 fold change, the MEK4 gene expression is on record as −1.2 fold change, the MEKK1 gene expression is recorded as −0.8 fold change and the MEKK2 gene expression was −1.2 fold change. Besides, in assay [2] (HUVEC), the NF-κB1 gene expression is recorded as −1.6 fold change, the NF-κB2 gene expression is listed as −3.5* fold change, the “P38 MAPK gene expression” value was −1.6 fold change and the RANK gene expression is given as 1.3 fold change. Moreover, in assay [2] (HUVEC), the RIP gene expression is −10.4^# fold change, the TAK1 gene expression is recorded as −1.8 fold change, the TBK1 gene expression is −2.0^# fold change and the TRAF6 gene expression is listed as −1.6 fold change.
ARRPRPPYLPR [Peptide A1]: the IC50 in assay [1] (setting [3]) amounted to 2810 nM. In addition, in assay [2], the “overall inhibitory effect” value was “dramatically reduced PR11 activity”. Besides, in assay [2] (HUVEC), the AKT1 gene expression turned out to be 1.3 fold change, the ATF2 gene expression is −1.4* fold change, the CREB1 gene expression is −1.4 fold change and the ELK3 gene expression came to 0.9 fold change. In assay [2] (HUVEC), this substance showed a JNK1 gene expression of −1.1 fold change, an MEK4 gene expression of −0.9 fold change, an MEKK1 gene expression of −1.0 fold change and an MEKK2 gene expression of −1.2 fold change. In assay [2] (HUVEC), the NF-κB1 gene expression is reported as −1.1 fold change, the NF-κB2 gene expression is given as −1.1 fold change, the “P38 MAPK gene expression” value is −1.1 fold change and the RANK gene expression was 1.2 fold change. Further, in assay [2] (HUVEC), the RIP gene expression is −0.9 fold change, the TAK1 gene expression was −1.4* fold change, the TBK1 gene expression is on record as −1.4* fold change and the TRAF6 gene expression is −1.1 fold change.
In the case of “H-RRRPRPPYLPRPRPPPFFPPRLPPRIPPGFPPRFPPRFP-OH [PR39, reference compound]”, the IC50 in assay [1] (setting [3]) came out at 4 nM.
As for KKKPRPPYLPR [KKK], in assay [1] (setting [3]), the IC50 was determined as 2710 nM. Further, the “overall inhibitory effect” value in assay [2] was “lowest inhibitory effect in this series”. Moreover, in assay [2] (HUVEC), the AKT1 gene expression is on record as 1.7 fold change, the ATF2 gene expression is recorded as −1.3 fold change, the CREB1 gene expression was −1.3 fold change and the ELK3 gene expression is given as 1.4^# fold change. In assay [2] (HUVEC), the JNK1 gene expression was −2.5 fold change, the MEK4 gene expression is reported as −2.8* fold change, the MEKK1 gene expression is −2.0 fold change and the MEKK2 gene expression is recorded as −1.5 fold change. Further, in assay [2] (HUVEC), the NF-κB1 gene expression is given as −2.4 fold change, the NF-κB2 gene expression was −1.4 fold change, the “P38 MAPK gene expression” value is recorded as −1.3 fold change and the RANK gene expression worked out at 1.2 fold change. In addition, in assay [2] (HUVEC), the RIP gene expression is given as −2.6 fold change, the TAK1 gene expression is listed as −2.9* fold change, the TBK1 gene expression is listed as −1.8^# fold change and the TRAF6 gene expression is reported as −1.3 fold change. Moreover, in assay [2] (HUVEC, of the 13 down-regulated genes of Tables 5 and 6), the “number of significantly reduced genes” value is reported as 3 genes.
KRRPRPPELPR [Peptide K1E8]: in assay [1] (setting [3]), the IC50 was determined as 6340 nM. In addition, the “overall inhibitory effect” value in assay [2] is on record as “higher than that of Glu8 or Ala1Glu8”. Further, in assay [2] (HUVEC), the AKT1 gene expression amounted to 0.6 fold change, the ATF2 gene expression is listed as −2.6^# fold change, the CREB1 gene expression was −5.0^# fold change and the ELK3 gene expression result is reported as “^−1.9^# fold change”. For the same substance, in assay [2] (HUVEC), the JNK1 gene expression is −2.2 fold change, the MEK4 gene expression is listed as −1.9* fold change, the MEKK1 gene expression is listed as −1.4 fold change and the MEKK2 gene expression was −3.0^# fold change. In assay [2] (HUVEC), the NF-κB1 gene expression was −1.9 fold change, the NF-κB2 gene expression is recorded as −2.3* fold change, the “P38 MAPK gene expression” value is recorded as −2.6^# fold change and the RANK gene expression is reported as 0.7 fold change. In addition, in assay [2] (HUVEC), the RIP gene expression is recorded as −3.3* fold change, the TAK1 gene expression was −2.4^# fold change, the TBK1 gene expression was −3.6^# fold change and the TRAF6 gene expression is listed as −5.5* fold change.
On to RAAPRPPYLPR [RAA], for which the IC50 in assay [1] (setting [3]) is 20100 nM.
Consider RARPRPPYLPR [Peptide A2], for which the IC50 in assay [1] (setting [3]) is 2770 nM. Further, the “overall inhibitory effect” value in assay [2] is given as “dramatically reduced PR11 activity”. In assay [2] (HUVEC), this substance yielded an AKT1 gene expression of 1.4 fold change, an ATF2 gene expression of −1.2 fold change, a CREB1 gene expression of −1.4 fold change and an ELK3 gene expression of 1.0 fold change. In assay [2] (HUVEC), this substance came in with a JNK1 gene expression of −1.5 fold change, an MEK4 gene expression of −1.9 fold change, an MEKK1 gene expression of −1.8 fold change and an MEKK2 gene expression of −0.9 fold change. For the same substance, in assay [2] (HUVEC), the NF-κB1 gene expression was −1.2 fold change, the NF-κB2 gene expression is reported as −0.8 fold change, the “P38 MAPK gene expression” value is reported as −0.9 fold change and the RANK gene expression came out at 1.4 fold change. In assay [2] (HUVEC), this substance yielded an RIP gene expression of −1.1 fold change, a TAK1 gene expression of −0.8 fold change, a TBK1 gene expression of −1.3 fold change and a TRAF6 gene expression of −1.1 fold change.
With RRRARPPYLPR [Peptide A4], the IC50 in assay [1] (setting [3]) was 5000 nM and 4990 nM.
Turning to RRRPAPPYLPR [Peptide A5], in assay [1] (setting [3]), the IC50 is 2650 nM.
The same measure, in the same setting: with RRRPRAPYLPR [Peptide A6] the figure was 1220 nM; with RRRPRPAYLPR [Peptide A7], 851 nM.
Turning to RRRPRPPYGPR [Peptide G9], the “20S proteasome inhibiting activity (in words)” value in assay [1] (chymotrypsin-like activity) is “fully active”. In assay [1] (setting [3]), the IC50 amounted to 137 nM.
Regarding RRRPRPPYLAR [Peptide A10], the IC50 in assay [1] (setting [3]) stood at 782 nM.
Same read-out and setting: as for RRRPRPPYLPA [Peptide A11], the figure is 685 nM.
